Experimental data: US20240415804A1, “METHOD OF TREATING PANCREATIC CANCER” (University of South Florida, priority 2022, published 2024)

Tests used:
Type in all cases: in vivo, mouse
UN-KC-6141 tumors = assay: Tumor growth in KC-HPC mice; details: API 25 mg/kg IP three times per week
Experimental: To build on these findings, the inventors then used a novel pancreatic cancer cell line, UN-KC-6141, that resembles human PC due to its expression of a mutated Kras and generated mice harboring these tumor cells, called KC-HPC mice. Such mice were treated with API at a dose of 25 mg/kg (IP) three times per week for 17 days. The inventors examined if API also targets miR-155 and regulates SHIP-1 in the tumors from KC-HPC mouse model. […] All female C57BL/6 mice (6-8 weeks of age) described in this study were purchased from Envigo (Indianapolis, IN, USA) and were acclimatize for one week in a pathogen-free animal facility (University of South Florida (USF) vivarium) before injections with PC cells. To generate heterotopic pancreatic cancer (HPC) models, mice were subcutaneously injected with 1.5×10^5 murine Panc02 (HPC mice) or 5×10^6 murine UN-KC-6141 cells (KC-HPC mice), in sterile 1× phosphate buffer saline (PBS), in the lower ventral abdomen, while control (CTRL) mice received sterile 1×PBS. Once tumors where palpable, API (25 mg/kg, 100 μL volume) treatments (HPC-API and KC-HPC-API), via intraperitoneal (IP) injections, were started while CTRL, HPC and KC-HPC mice received sterile PBS (vehicle) three times per week until the end of the study^12, 55. The HPC models were euthanized 21-28 days post-injection, while the KC-HPC models were euthanized 16-17 days post-injection.

[1] = test system: CD8+ T cells (CD3+CD8+CD4−); assay: Flow cytometry of intra-tumoral CD8+ T cells and CD40L in KC-HPC mice; details: API-treated vs vehicle-treated KC-HPC mice
Experimental: The inventors then assessed the expression of CD40 (a T cell co-stimulation marker) on M1 TAM (gated as MHC-II^+ and CD206) within the tumor from KC-HPC vs. KC-HPC-API mice. […] The femur and tibia were cut at the pelvic-hip joint and muscle was removed. The femurs and tibias were cut at the ends and flushed with a 30-gauge needle and 10 cc syringe filled with completed RPMI media until bone was white onto a petri dish. Pelleted bone marrow (BM) cells were treated with Red Blood Cell (RBC) lysis buffer (eBioscience, Waltham, MA, USA), according to the manufacturer's instructions, and then filtered through a […] nylon mesh cell strainer in 1×PBS. All pancreatic tumors were manually cut into ˜1-2 mm^3 fragments with a sterile razor blade and then enzymatically digested with Collagenase, type IV (Sigma-Aldrich), DNase, type IV (Sigma-Aldrich) and Hyaluronidase, Type V (Sigma-Aldrich) in Hank's Balanced Salt Solution for 1 h, spun down and washed as described in previous studies^61. Digested pancreatic tumor samples were treated with RBC lysis buffer and then filtered through a […] nylon mesh cell strainer in 1×PBS. Bone marrow and digested pancreatic tumor single cell suspensions were counted with a hemocytometer and then resuspended in 3% FBS/PBS. BM and digested pancreatic tumor cells (1×10^6) were Fc Blocked (anti-mouse CD16/CD32) and then surface stained for 30 min on ice protected from light with fluorescent anti-mouse antibodies including, CD11b-APC, Ly6C-PE/Cy7, Ly6G-PerCP, F4/80-BV650, MHC—II-BV605, CD206-FITC and CD40-PE/Cy5 along with isotype control antibodies (Biolegend, San Diego, CA, USA) to detect MDSC and macrophage subsets. Digested pancreatic tumor cells (1×10^6) were also Fc Blocked and then surface stained with fluorescent anti-mouse antibodies including CD3-FITC, CD8-PercP/Cy5.5, CD4-APC/Cy7, and CD40L-APC along with isotype control antibodies (Biolegend) to detect CD8^+ T cells. Subsequently, all samples were fixed with 2% paraformaldehyde for 15 min on ice protected from light. […]

miR-155 = miR-155 gene expression in BM and tumor of OPC mice; details: API 25 mg/kg IP 3 times per week for 2-3 weeks, vs OPC mice
Experimental: The inventors reported recently that API reduced tumor growth in an orthotopic (O) mouse model of PC (OPC)^12, which is a more clinically relevant model^69. To investigate if API targets miR-155 and regulates SHIP-1 expression in the BM and tumor of an OPC mouse model, OPC mice were treated with API at a dose of 25 mg/kg (IP) 3 times per week for 2-3 weeks. […] To generate orthotopic pancreatic models (OPC), anesthetized (1.5-3% isoflurane) mice were injected in the neck of the pancreas, via laparotomy^59, with sterile PBS (CTRL) or 1.25×10^4 Panc02 cells (OPC), in sterile 1×PBS. Once pancreatic tumors were confirmed through ultrasound imaging (Vevo 2100), a cohort of OPC mice received API (25 mg/kg, 100 μL volume) while CTRL and OPC mice received sterile PBS (vehicle), all via IP, three times per week until the end of the study^12. […] The PCR cycling parameters were 95° C. for 10 min followed by 40 cycles of a denaturing step at 95° C. for 15 s and an annealing/extension step at 60° C. for 1 min. All reactions were performed in triplicate. Relative expression of miR-155 was calculated using the comparative […] method normalized to a mouse endogenous control gene snoRNA202 and human endogenous control gene U6 (Assay IDs: 001232 and 001093).

O=c1cc(-c2ccc(O)cc2)oc2cc(O)cc(O)c12 [API, 40,5,7-Trihydroxyflavone, 5,7-Dihydroxy-2-(4-hydroxyphenyl)-4-benzopyrone]
tumor burden (tumor volume, tumor area) (UN-KC-6141 tumors): significantly reducing | CD40L expression on intra-tumoral CD8+ T cells [1]: no significant changes | intra-tumoral CD8+ T cells (flow cytometric analysis) [1]: significant increase | intra-tumoral CD8+ T cells absolute cell numbers [1]: significant increase | miR-155 gene expression in BM (miR-155): inhibit the overexpression | miR-155 gene expression in pancreatic tumor (miR-155): significant decrease
